Experimental data taken from US20050043326A1, “Compounds” (Pfizer Inc, priority 2003, published 2005).

Key:
[1] = system: TNFα release from human peripheral blood mononuclear cells; experiment: Inhibition of TNFα release from LPS-stimulated human peripheral blood mononuclear cells (TNFα screen); format: cell-based; settings: 18 hours incubation, TNFα in supernatant by ELISA
Experimental: Venous blood is collected from healthy volunteers and the mononuclear cells purified by centrifugation through Histopaque (Ficoll) cushions. TNFα production from these cells is stimulated by addition of lipopolysaccharide. After 18 hours incubation in the presence of LPS, the cell supernatant is removed and the concentration of TNFα in the supernatant determined by ELISA.
(§1) Data are presented below for the Examples in which the TNFα and PDE4 inhibition are presented as IC50 values in nM.

PDE4 = PDE4 inhibition: hydrolysis of tritium labelled cAMP to AMP, SPA bead scintillation counting; format: biochemical; settings: tritium labelled cAMP incubated with PDE4, yttrium silicate SPA beads
Experimental: The PDE4 inhibitory activity of the nicotinamide derivatives of the formula (I) is determined by the ability of compounds to inhibit the hydrolysis of cAMP to AMP by PDE4 (Thompson J W, Teraski W L, Epstein P M, Strada S J., “Assay of nucleotidephosphodiesterase and resolution of multiple molecular forms of the isoenzyme”, Advances in cyclic nucleotides research, edited by Brooker G, Greengard P, Robinson G A. Raven Press, New York 1979, 10, p. 69-92). Tritium labelled cAMP is incubated with PDE4. Following incubation, the radiolabelled AMP produced is able to bind yttrium silicate SPA beads. These SPA beads subsequently produce light that can be quantified by scintillation counting. The addition of a PDE4 inhibitor prevents the formation of AMP from cAMP and counts are diminished. The IC50 of a PDE4 inhibitor can be defined as the concentration of a compound that leads to a 50% reduction in counts compared to the PDE4 only (no inhibitor) control wells.
as §1

## O=C(N[C@H]1CC[C@@H](NC(=O)c2cc(F)cnc2OC2CCSCC2)CC1)c1ccc(Cl)cc1O [Example 15, Syn-N-[4-(4-Chloro-2-hydroxy-benzoylamino)-cyclohexyl]-5-fluoro-2-(tetrahydro-thiopyran-4-yloxy)-nicotinamide]
[1]; PBMC
  IC50: 0.4 nM

## O=C(N[C@H]1CC[C@@H](NC(=O)c2cc(F)cnc2OC2CCSCC2)CC1)c1cc(F)ccc1O [Example 25, Syn-5-Fluoro-N-[4-(5-fluoro-2-hydroxy-benzoylamino)-cyclohexyl]-2-(tetrahydro-thiopyran-4-yloxy)-nicotinamide]
[1]; PBMC
  IC50: 0.8 nM

## O=C(N[C@H]1CC[C@@H](NC(=O)c2cc(Cl)cc(Cl)c2O)CC1)c1cc(F)cnc1OC1CCSCC1 [Example 26, Syn-N-[4-(3,5-Dichloro-2-hydroxy-benzoylamino)-cyclohexyl]-5-fluoro-2-(tetrahydro-thiopyran-4-yloxy)-nicotinamide]
[1]
  IC50: 14 nM

## O=C(N[C@H]1CC[C@@H](NC(=O)c2cc(F)cnc2OC2CCSCC2)CC1)c1cc(Cl)ccc1O [Example 27, Syn-N-[4-(5-Chloro-2-hydroxy-benzoylamino)-cyclohexyl]-5-fluoro-2-(tetrahydro-thiopyran-4-yloxy)-nicotinamide]
[1]; PBMC
  IC50: 0.7 nM

## Cc1cccc(C(=O)N[C@H]2CC[C@@H](NC(=O)c3cc(F)cnc3OC3CCSCC3)CC2)c1O [Example 28, Syn-5-Fluoro-N-[4-(2-hydroxy-3-methyl-benzoylamino)-cyclohexyl]-2-(tetrahydro-thiopyran-4-yloxy)-nicotinamide]
[1]; PBMC
  IC50: 12 nM

## O=C(N[C@H]1CC[C@@H](NC(=O)c2cc(F)cnc2OC2CCSCC2)CC1)c1ccccc1O [Example 29, Syn-5-Fluoro-N-[4-(2-hydroxy-benzoylamino)-cyclohexyl]-2-(tetrahydro-thiopyran-4-yloxy)-nicotinamide]
[1]; PBMC
  IC50: 0.4 nM

## O=C(N[C@H]1CC[C@@H](NC(=O)c2cc(O)nc3ccccc23)CC1)c1cc(F)cnc1OC1CCSCC1 [Example 30, Syn-2-Hydroxy-guinoline-4-carboxylic acid (4-{[5-fluoro-2-(tetrahydro-thiopyran-4-yloxy)-pyridine-3-carbonyl]-amino}-cyclohexyl)-amide]
[1]; PBMC
  IC50: 2 nM

## Cc1cc(C(=O)N[C@H]2CC[C@@H](NC(=O)c3cc(F)cnc3OC3CCSCC3)CC2)c2cc(O)ccc2n1 [Example 31, Syn-6-Hydroxy-2-methyl-quinoline-4-carboxylic acid (4-{[5-fluoro-2-(tetrahydro-thiopyran-4-yloxy)-pyridine-3-carbonyl]-amino}-cyclohexyl)-amide]
[1]; PBMC
  IC50: 1 nM

## O=C(N[C@H]1CC[C@@H](NC(=O)c2ccnc3c(O)cccc23)CC1)c1cc(F)cnc1OC1CCSCC1 [Example 32, Syn-8-Hydroxy-quinoline-4-carboxylic acid (4-{[5-fluoro-2-(tetrahydro-thiopyran-4-yloxy)-pyridine-3-carbonyl]-amino}-cyclohexyl)-amide]
[1]; PBMC
  IC50: 10 nM

## O=C(N[C@H]1CC[C@@H](NC(=O)c2cccc3cn[nH]c23)CC1)c1cc(F)cnc1OC1CCSCC1 [Example 33, Syn-1H-Indazole-7-carboxylic acid (4-{[5-fluoro-2-(tetrahydro-thiopyran-4-yloxy)-pyridine-3-carbonyl]-amino}-cyclohexyl)-amide]
[1]; PBMC
  IC50: 0.07 nM

## O=C(N[C@H]1CC[C@@H](NC(=O)c2cc(F)cnc2OC2CCSCC2)CC1)c1ccc2cn[nH]c2c1 [Example 34, Syn-1H-Indazole-6-carboxylic acid (4-{[5-fluoro-2-(tetrahydro-thiopyran-4-yloxy)-pyridine-3-carbonyl]-amino}-cyclohexyl)-amide]
[1]; PBMC
  IC50: 1 nM

## Cc1cc(C(=O)N[C@H]2CC[C@@H](NC(=O)c3cc(F)cnc3OC3CCSCC3)CC2)nn1C [Example 42]
[1]; PBMC
  IC50: 0.02 nM
PDE4
  IC50: 0.3 nM

## O=C(N[C@H]1CC[C@@H](NC(=O)c2cccn3c(CO)cnc23)CC1)c1cc(F)cnc1OC1CCSCC1 [Example 51, Syn-3-Hydroxymethyl-imidazo[1,2-a]pyridine-8-carboxylic acid (4-{[5-fluoro-2-(tetrahydro-thiopyran-4-yloxy)-pyridine-3-carbonyl]-amino}-cyclohexyl)-amide]
[1]; PBMC
  IC50: 0.1 nM

## Cc1cc(C(=O)N[C@H]2CC[C@@H](NC(=O)c3cc(F)cnc3OC3CCSCC3)CC2)nn1CCO [Example 52, Syn-5-Fluoro-N-(4-{[1-(2-hydroxy-ethyl)-5-methyl-1H-pyrazole-3-carbonyl]-amino}-cyclohexyl)-2-(tetrahydro-thiopyran-4-yloxy)-nicotinamide]
[1]; PBMC
  IC50: 0.03 nM

## O=C(N[C@H]1CC[C@@H](NC(=O)c2nn(CCO)c3ccccc23)CC1)c1cc(F)cnc1OC1CCSCC1 [Example 53, Syn-1-(2-Hydroxy-ethyl)-1H-indazole-3-carboxylic acid (4-{[5-fluoro-2-(tetrahydro-thiopyran-4-yloxy)-pyridine-3-carbonyl]-amino}-cyclohexyl)-amide]
[1]; PBMC
  IC50: 0.01 nM

## CCc1cc(C(=O)N[C@H]2CC[C@@H](NC(=O)c3cc(F)cnc3OC3CCSCC3)CC2)nn1CCO [Example 54, Syn-N-(4-{[5-Ethyl-1-(2-hydroxy-ethyl)-1H-pyrazole-3-carbonyl]-amino}-cyclohexyl)-5-fluoro-2-(tetrahydro-thiopyran-4-yloxy)-nicotinamide]
[1]; PBMC
  IC50: 0.1 nM

## CCc1cc(C(=O)N[C@H]2CC[C@@H](NC(=O)c3cc(F)cnc3OC3CCSCC3)CC2)n(CCO)n1 [Example 55, Syn-N-(4-{[5-Ethyl-2-(2-hydroxy-ethyl)-2H-pyrazole-3-carbonyl]-amino}-cyclohexyl)-5-fluoro-2-(tetrahydro-thiopyran-4-yloxy)-nicotinamide]
[1]; PBMC
  IC50: 17 nM

## CC(C)c1cc(C(=O)N[C@H]2CC[C@@H](NC(=O)c3cc(F)cnc3OC3CCSCC3)CC2)n(CCO)n1 [Example 56, Syn-5-Fluoro-N-(4-{[2-(2-hydroxy-ethyl)-5-isopropyl-2H-pyrazole-3-carbonyl]-amino}-cyclohexyl)-2-(tetrahydro-thiopyran-4-yloxy)-nicotinamide]
[1]; PBMC
  IC50: 20 nM

## CC(C)c1cc(C(=O)N[C@H]2CC[C@@H](NC(=O)c3cc(F)cnc3OC3CCSCC3)CC2)nn1CCO [Example 57, Syn-5-Fluoro-N-(4-{[1-(2-hydroxy-ethyl)-5-isopropyl-1H-pyrazole-3-carbonyl]-amino}-cyclohexyl)-2-(tetrahydro-thiopyran-4-yloxy)-nicotinamide]
[1]; PBMC
  IC50: 0.07 nM

## O=C(N[C@H]1CC[C@@H](NC(=O)c2cc(F)cnc2OC2CCSCC2)CC1)c1ccc(O)cc1O [Example 58, Syn-N-[4-(2,4-Dihydroxy-benzoylamino)-cyclohexyl]-5-fluoro-2-(tetrahydro-thiopyran-4-yloxy)-nicotinamide]
[1]; PBMC
  IC50: 1 nM

## Cc1cnc2c(C(=O)N[C@H]3CC[C@@H](NC(=O)c4cc(F)cnc4OC4CCSCC4)CC3)cccn12 [Example 60, Syn-3-Methyl-imidazo[1,2a]pyridine-8-carboxylic acid (4-{[5-fluoro-2-(tetrahydro-thiopyran-4-yloxy)-pyridine-3-carbonyl]-amino}-cyclohexyl)-amide]
[1]; PBMC
  IC50: 0.06 nM

## O=C(N[C@H]1CC[C@@H](NC(=O)c2cc(Cl)cnc2OC2CCSCC2)CC1)c1cc(CO)ccc1O [Example 61, Syn-5-Chloro-N-[4-(2-hydroxy-5-hydroxymethyl-benzoylamino)-cyclohexyl]-2-(tetrahydro-thiopyran-4-yloxy)-nicotinamide]
[1]; PBMC
  IC50: 3 nM

## Cc1cnc(OC2CCSCC2)c(C(=O)N[C@H]2CC[C@@H](NC(=O)c3cc(CO)ccc3O)CC2)c1 [Example 62, Syn-N-[4-(2-Hydroxy-5-hydroxymethyl-benzoylamino)-cyclohexyl]-5-methyl-2-(tetrahydro-thiopyran-4-yloxy)-nicotinamide]
[1]; PBMC
  IC50: 12 nM

## Cc1ccc(C(=O)N[C@H]2CC[C@@H](NC(=O)c3cc(F)cnc3OC3CCSCC3)CC2)c(O)c1 [Example 63, Syn-5-Fluoro-N-[4-(2-hydroxy-4-methyl-benzoylamino)-cyclohexyl]-2-(tetrahydro-thiopyran-4-yloxy)-nicotinamide]
[1]; PBMC
  IC50: 0.002 nM
PDE4
  IC50: 0.5 nM

## Cc1ccc(S(=O)(=O)N[C@H]2CC[C@@H](NC(=O)c3cc(F)cnc3OC3CCSCC3)CC2)cc1 [Example 69, Syn-5-Fluoro-2-(tetrahydro-thiopyran-4-yloxy)-N-[4-(toluene-4-sulfonylamino)-cyclohexyl]-nicotinamide]
[1]; PBMC
  IC50: 15 nM

## Cc1ccccc1S(=O)(=O)N[C@H]1CC[C@@H](NC(=O)c2cc(F)cnc2OC2CCSCC2)CC1 [Example 70, Syn-5-Fluoro-2-(tetrahydro-thiopyran-4-yloxy)-N-[4-(toluene-2-sulfonylamino)-cyclohexyl]-nicotinamide]
[1]; PBMC
  IC50: 2 nM

## O=C(NC1CCC(NS(=O)(=O)c2c(O)ccc3cccnc23)CC1)c1cc(F)cnc1OC1CCSCC1 (stereo not drawn) [Example 72, Syn-5-Fluoro-N-[4-(7-hydroxy-quinoline-8-sulfonylamino)-cyclohexyl]-2-(tetrahydro-thiopyran-4-yloxy)-nicotinamide]
[1]
  IC50: 0.001 nM

## O=C(NC1CCC(NS(=O)(=O)c2c(O)ccc3cccnc23)CC1)c1cccnc1OC1CCSCC1 (stereo not drawn) [Example 73, Syn-N-[4-(7-hydroxy-quinoline-8-sulfonylamino)-cyclohexyl]-2-(tetrahydro-thiopyran-4-yloxy)-nicotinamide]
[1]
  IC50: 0.03 nM
